# Test results published in ChEMBL document CHEMBL1201862, “PubChem BioAssay data set” (2004).
#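 These data come from cells grown in 96-well plates and exposed to compound for 48 hours at five concentrations. GI50 = concentration required for 50% inhibition of growth.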 Active and inactive are the calls of the source. No stated cut-off is given here; in the data, active = GI50 up to about 1.1 µM and inactive = higher.
# Assays:
# Assay in all cases: inhibition of tumour cell growth, NCI panel, 48 h
# Malme-3M = test system: Malme-3M
# NCI-H23 = test system: NCI-H23
# HT-29 = test system: HT-29
# SNB-19 = test system: SNB-19
# UACC-62 = test system: UACC-62
# SK-MEL-5 = test system: SK-MEL-5
# OVCAR-4 = test system: OVCAR-4
# A498 = test system: A498
# Hs-578T = test system: Hs-578T
# SN12C = test system: SN12C
# CAKI-1 = test system: CAKI-1
# OVCAR-3 = test system: OVCAR-3
# SW-620 = test system: SW-620
# M14 = test system: M14
# U-251 = test system: U-251
# LOX IMVI = test system: LOX IMVI
# MOLT-4 = test system: MOLT-4
# CCRF-CEM = test system: CCRF-CEM
# SK-MEL-28 = test system: SK-MEL-28
# RPMI-8226 = test system: RPMI-8226
# HCT-116 = test system: HCT-116
# NCI-H226 = test system: NCI-H226
# T47D = test system: T47D
# HOP-62 = test system: HOP-62
# SNB-75 = test system: SNB-75
# BT-549 = test system: BT-549
# COLO 205 = test system: COLO 205
# NCI-H460 = test system: NCI-H460
# UACC-257 = test system: UACC-257
# NCI-H522 = test system: NCI-H522
# 786-0 = test system: 786-0
# SF-268 = test system: SF-268
# HCC 2998 = test system: HCC 2998
# SR = test system: SR
# SF-295 = test system: SF-295
# K562 = test system: K562
# RXF 393 = test system: RXF 393
# UO-31 = test system: UO-31
# ACHN = test system: ACHN
# A549 = test system: A549
# MDA-N = test system: MDA-N
# OVCAR-5 = test system: OVCAR-5
# HCT-15 = test system: HCT-15
# HOP-92 = test system: HOP-92
# HL-60 = test system: HL-60
# SK-MEL-2 = test system: SK-MEL-2
# TK-10 = test system: TK-10
# SF-539 = test system: SF-539
# IGROV-1 = test system: IGROV-1
# SK-OV-3 = test system: SK-OV-3
# MCF7 = test system: MCF7
# KM12 = test system: KM12
# PC-3 = test system: PC-3
# OVCAR-8 = test system: OVCAR-8
# NCI/ADR-RES = test system: NCI/ADR-RES
# MDA-MB-231 = test system: MDA-MB-231
# MDA-MB-435 = test system: MDA-MB-435
# DU-145 = test system: DU-145
# EKVX = test system: EKVX
smiles,measurement,setting,value
Cc1c(-c2cnccn2)ssc1=S [OLTIPRAZ],GI50,Malme-3M,> 100 µM (inactive)
same,GI50,NCI-H23,88.5 µM (inactive)
same,GI50,HT-29,> 100 µM (inactive)
same,GI50,SNB-19,68.1 µM (inactive)
same,GI50,UACC-62,76.2 µM (inactive)
same,GI50,SK-MEL-5,36.3 µM (inactive)
same,GI50,OVCAR-4,> 100 µM (inactive)
same,GI50,A498,34.8 µM (inactive)
same,GI50,Hs-578T,34.5 µM (inactive)
same,GI50,SN12C,> 100 µM (inactive)
same,GI50,CAKI-1,> 100 µM (inactive)
same,GI50,OVCAR-3,99.3 µM (inactive)
same,GI50,SW-620,> 100 µM (inactive)
same,GI50,M14,> 100 µM (inactive)
same,GI50,U-251,46 µM (inactive)
same,GI50,LOX IMVI,63 µM (inactive)
same,GI50,MOLT-4,> 96.4 µM (inactive)
same,GI50,CCRF-CEM,60.3 µM (inactive)
same,GI50,SK-MEL-28,> 100 µM (inactive)
same,GI50,RPMI-8226,> 100 µM (inactive)
same,GI50,HCT-116,54.3 µM (inactive)
same,GI50,NCI-H226,94.2 µM (inactive)
same,GI50,T47D,67.6 µM (inactive)
same,GI50,HOP-62,47 µM (inactive)
same,GI50,SNB-75,18.5 µM (inactive)
same,GI50,BT-549,22 µM (inactive)
same,GI50,COLO 205,> 100 µM (inactive)
same,GI50,NCI-H460,> 100 µM (inactive)
same,GI50,UACC-257,24.5 µM (inactive)
same,GI50,NCI-H522,34.8 µM (inactive)
same,GI50,786-0,40.4 µM (inactive)
same,GI50,SF-268,56.2 µM (inactive)
same,GI50,HCC 2998,> 100 µM (inactive)
same,GI50,SR,68.9 µM (inactive)
same,GI50,SF-295,57.4 µM (inactive)
same,GI50,K562,> 100 µM (inactive)
same,GI50,RXF 393,31.9 µM (inactive)
same,GI50,UO-31,40 µM (inactive)
same,GI50,ACHN,44 µM (inactive)
same,GI50,A549,98.9 µM (inactive)
same,GI50,MDA-N,> 100 µM (inactive)
same,GI50,OVCAR-5,> 100 µM (inactive)
same,GI50,HCT-15,62.8 µM
same,GI50,HOP-92,26.8 µM (inactive)
same,GI50,HL-60,61.9 µM (inactive)
same,GI50,SK-MEL-2,53.3 µM (inactive)
same,GI50,TK-10,62.7 µM (inactive)
same,GI50,SF-539,63.1 µM (inactive)
same,GI50,IGROV-1,> 100 µM (inactive)
same,GI50,SK-OV-3,35.9 µM (inactive)
same,GI50,MCF7,> 100 µM (inactive)
same,GI50,KM12,> 80.9 µM (inactive)
same,GI50,PC-3,> 100 µM (inactive)
same,GI50,OVCAR-8,72.4 µM (inactive)
same,GI50,NCI/ADR-RES,> 100 µM (inactive)
same,GI50,MDA-MB-231,63.2 µM (inactive)
same,GI50,MDA-MB-435,> 100 µM (inactive)
same,GI50,DU-145,> 100 µM (inactive)
same,GI50,EKVX,33.2 µM (inactive)
O=C(/C=C/NC(=O)OCc1ccccc1)OCc1ccccc1,GI50,Malme-3M,> 100 µM (inactive)
same,GI50,NCI-H23,> 100 µM (inactive)
same,GI50,HT-29,> 100 µM (inactive)
same,GI50,SNB-19,> 100 µM (inactive)
same,GI50,UACC-62,> 100 µM (inactive)
same,GI50,SK-MEL-5,> 100 µM (inactive)
same,GI50,OVCAR-4,> 100 µM (inactive)
same,GI50,A498,> 100 µM (inactive)
same,GI50,Hs-578T,> 100 µM (inactive)
same,GI50,SN12C,> 100 µM (inactive)
same,GI50,CAKI-1,> 100 µM (inactive)
same,GI50,OVCAR-3,> 100 µM (inactive)
same,GI50,SW-620,> 100 µM (inactive)
same,GI50,M14,> 100 µM (inactive)
same,GI50,U-251,> 100 µM (inactive)
same,GI50,LOX IMVI,> 100 µM (inactive)
same,GI50,MOLT-4,> 100 µM (inactive)
same,GI50,CCRF-CEM,> 100 µM (inactive)
same,GI50,SK-MEL-28,> 100 µM (inactive)
same,GI50,RPMI-8226,> 100 µM (inactive)
same,GI50,HCT-116,> 100 µM (inactive)
same,GI50,NCI-H226,> 100 µM (inactive)
same,GI50,T47D,> 100 µM (inactive)
same,GI50,HOP-62,> 100 µM (inactive)
same,GI50,SNB-75,32.7 µM (inactive)
same,GI50,BT-549,> 100 µM (inactive)
same,GI50,COLO 205,> 100 µM (inactive)
same,GI50,NCI-H460,> 100 µM (inactive)
same,GI50,UACC-257,> 100 µM (inactive)
same,GI50,NCI-H522,> 100 µM (inactive)
same,GI50,786-0,> 100 µM (inactive)
same,GI50,SF-268,> 100 µM (inactive)
same,GI50,HCC 2998,> 100 µM (inactive)
same,GI50,SR,> 100 µM (inactive)
same,GI50,SF-295,> 100 µM (inactive)
same,GI50,K562,> 100 µM (inactive)
same,GI50,RXF 393,> 100 µM (inactive)
same,GI50,UO-31,32.5 µM (inactive)
same,GI50,ACHN,> 100 µM (inactive)
same,GI50,A549,> 100 µM (inactive)
same,GI50,MDA-N,> 100 µM (inactive)
same,GI50,OVCAR-5,> 100 µM (inactive)
same,GI50,HCT-15,> 100 µM
same,GI50,HOP-92,41.6 µM (inactive)
same,GI50,HL-60,> 100 µM (inactive)
same,GI50,SK-MEL-2,> 100 µM (inactive)
same,GI50,TK-10,86.7 µM (inactive)
same,GI50,SF-539,64.9 µM (inactive)
same,GI50,IGROV-1,> 100 µM (inactive)
same,GI50,SK-OV-3,32.4 µM (inactive)
same,GI50,MCF7,> 100 µM (inactive)
same,GI50,KM12,> 100 µM (inactive)
same,GI50,PC-3,> 100 µM (inactive)
same,GI50,OVCAR-8,> 100 µM (inactive)
same,GI50,NCI/ADR-RES,> 100 µM (inactive)
same,GI50,MDA-MB-231,28.1 µM (inactive)
same,GI50,MDA-MB-435,> 100 µM (inactive)
same,GI50,DU-145,> 100 µM (inactive)
same,GI50,EKVX,> 100 µM (inactive)
